5 compounds from patent US20050261298A1, “Methods of treating conditions associated with an Edg-7 receptor” (priority 2002, published 2005) can be followed below.

The target in data set [1] is T1, Edg-1 (Homo sapiens, UniProt P21453).
T1 construct: expressed in transfected cells; host or cells: HTC rat hepatoma cells
The data set is described as follows: Calcium mobilization assay (FLIPR), inhibition of S1P-stimulated calcium increase. The class given is cell-based. Particulars: HTC cells expressing Edg-1. For orientation: A change in cytosolic calcium serves as a functional read-out for many receptors and channels.

In data set [2] the target is T2, Edg-2 (Homo sapiens, UniProt Q92633).
T2 construct: expressed in transfected cells; host or cells: HTC rat hepatoma cells
T2 sequence (Q92633 whole entry): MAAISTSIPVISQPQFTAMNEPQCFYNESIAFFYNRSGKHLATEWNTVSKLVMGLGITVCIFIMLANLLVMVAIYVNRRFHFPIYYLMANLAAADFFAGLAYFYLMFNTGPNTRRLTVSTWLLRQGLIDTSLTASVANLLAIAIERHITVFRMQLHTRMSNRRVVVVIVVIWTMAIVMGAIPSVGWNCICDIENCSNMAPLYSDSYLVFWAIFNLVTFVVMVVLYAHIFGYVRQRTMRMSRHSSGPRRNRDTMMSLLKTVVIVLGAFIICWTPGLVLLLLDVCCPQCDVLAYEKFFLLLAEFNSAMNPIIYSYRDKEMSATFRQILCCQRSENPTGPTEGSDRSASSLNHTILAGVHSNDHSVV
In words: Calcium mobilization assay (FLIPR), inhibition of LPA-stimulated calcium increase. It is filed as cell-based. The conditions noted are these: HTC cells expressing Edg-2.

For data set [3], the target named is T3, Edg-3 (Homo sapiens, UniProt Q99500).
T3 construct: expressed in transfected cells; host or cells: HTC rat hepatoma cells
T3 sequence (Q99500 whole entry): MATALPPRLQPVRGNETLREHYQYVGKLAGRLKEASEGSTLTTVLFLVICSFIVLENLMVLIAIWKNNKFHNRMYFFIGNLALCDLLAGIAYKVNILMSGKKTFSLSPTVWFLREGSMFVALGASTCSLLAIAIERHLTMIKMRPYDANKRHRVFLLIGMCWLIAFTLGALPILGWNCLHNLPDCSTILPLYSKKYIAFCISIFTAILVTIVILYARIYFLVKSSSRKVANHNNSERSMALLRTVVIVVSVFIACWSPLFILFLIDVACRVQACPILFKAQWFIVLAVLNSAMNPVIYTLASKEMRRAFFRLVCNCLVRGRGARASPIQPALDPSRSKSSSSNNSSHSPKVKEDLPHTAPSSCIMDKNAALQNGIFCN
The data set is described as follows: Calcium mobilization assay (FLIPR), inhibition of S1P-stimulated calcium increase. It is filed as cell-based. The conditions noted are these: HTC cells expressing Edg-3.

Data set [4] addresses T4, Edg-4 (Homo sapiens, UniProt Q9HBW0). In words: Calcium mobilization assay (FLIPR), inhibition of LPA-stimulated calcium increase. It is filed as cell-based. The conditions noted are these: HTC cells expressing Edg-4.
Target sequence in this assay (Q9HBW0 1-344 limits assumed): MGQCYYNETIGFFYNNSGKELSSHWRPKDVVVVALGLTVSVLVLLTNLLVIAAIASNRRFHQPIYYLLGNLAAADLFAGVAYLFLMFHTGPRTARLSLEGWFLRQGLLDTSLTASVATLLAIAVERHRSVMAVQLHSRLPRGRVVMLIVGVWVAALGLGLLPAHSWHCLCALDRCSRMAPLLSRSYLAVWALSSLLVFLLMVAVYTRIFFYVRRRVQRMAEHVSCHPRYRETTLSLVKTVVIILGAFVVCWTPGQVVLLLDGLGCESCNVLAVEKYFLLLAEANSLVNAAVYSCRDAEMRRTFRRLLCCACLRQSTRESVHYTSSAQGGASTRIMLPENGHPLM
The target in data set [5] is T5, Edg-5 (Homo sapiens, UniProt O95136).
T5 construct: expressed in transfected cells; host or cells: HTC rat hepatoma cells
T5 sequence (O95136 whole entry): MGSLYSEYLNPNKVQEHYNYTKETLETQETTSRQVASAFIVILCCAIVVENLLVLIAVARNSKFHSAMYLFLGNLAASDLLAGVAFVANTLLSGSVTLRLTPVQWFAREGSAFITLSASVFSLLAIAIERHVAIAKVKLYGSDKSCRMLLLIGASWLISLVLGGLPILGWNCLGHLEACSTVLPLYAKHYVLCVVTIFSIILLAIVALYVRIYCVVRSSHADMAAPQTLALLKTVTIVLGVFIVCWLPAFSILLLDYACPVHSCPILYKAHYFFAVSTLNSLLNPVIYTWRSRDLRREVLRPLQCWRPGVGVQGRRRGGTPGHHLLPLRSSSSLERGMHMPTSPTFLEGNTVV
In words: Calcium mobilization assay (FLIPR), inhibition of S1P-stimulated calcium increase. It is filed as cell-based. The conditions noted are these: HTC cells expressing Edg-5.

The target of data set [6] is T6, Edg-6 (Homo sapiens, UniProt O95977).
T6 construct: expressed in transfected cells; host or cells: HTC rat hepatoma cells
T6 sequence (O95977 1-384): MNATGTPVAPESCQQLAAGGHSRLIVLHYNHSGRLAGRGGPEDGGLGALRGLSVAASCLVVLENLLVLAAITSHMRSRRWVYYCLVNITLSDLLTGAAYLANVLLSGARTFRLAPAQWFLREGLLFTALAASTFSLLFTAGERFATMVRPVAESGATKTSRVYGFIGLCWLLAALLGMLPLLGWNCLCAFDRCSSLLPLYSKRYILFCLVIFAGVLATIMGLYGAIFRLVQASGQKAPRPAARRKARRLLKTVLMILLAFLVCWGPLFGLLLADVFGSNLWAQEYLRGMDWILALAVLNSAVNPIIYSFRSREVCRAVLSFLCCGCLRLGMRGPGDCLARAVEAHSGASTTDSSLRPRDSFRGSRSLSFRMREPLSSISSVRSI
The data set is described as above. Particulars: HTC cells expressing Edg-6. The class given is cell-based.

Data set [7] has as its target T7, human Edg 7 receptors (Homo sapiens, UniProt Q9UBY5).
T7 construct: expressed in transfected cells
T7 sequence (Q9UBY5 1-353): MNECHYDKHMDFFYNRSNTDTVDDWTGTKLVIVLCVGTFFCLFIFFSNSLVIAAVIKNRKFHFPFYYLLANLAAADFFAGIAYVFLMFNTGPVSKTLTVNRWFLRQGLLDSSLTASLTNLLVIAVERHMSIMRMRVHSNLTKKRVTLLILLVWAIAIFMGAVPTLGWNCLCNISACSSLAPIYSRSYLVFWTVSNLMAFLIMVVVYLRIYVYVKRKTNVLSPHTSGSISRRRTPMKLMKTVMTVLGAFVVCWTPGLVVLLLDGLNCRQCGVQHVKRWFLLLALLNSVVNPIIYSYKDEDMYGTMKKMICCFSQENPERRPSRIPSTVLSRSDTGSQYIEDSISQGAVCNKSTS
The data set is described as follows: Calcium mobilization assay (FLIPR), inhibition of LPA response. It is filed as cell-based. The conditions noted are these: for IC50: HTC cells expressing human Edg 7; for Fold Selectivity: inhibitory selectivity for Edg-7 relative to other Edg receptors. The method, then: (§1) The compounds were tested in HTC cells expressing human Edg 7 receptors. […] The compounds are tested in this recombinant system first, and subsequently tested in cell lines expressing Edg-7 (in addition to other Edg receptors).
The radioligand binding assays were conducted as described in Section 6.15 (Example 15).
(§2) LPA receptors such as Edg-7, couple to calcium effector pathways, and result in increases in intracellular calcium following receptor activation (An, 1998, J. Cell. Biochem Supp. 30-31:147-157). This biological response lends itself to a very efficient, high-throughput screen using a Fluorescence Imaging Plate Reader (FLIPR; Molecular Devices, Sunnyvale, Calif.). The FLIPR system is a real-time, cell-based assay system with continuous fluorescence detection using a cooled CCD camera. The FLIPR system was used to developing an Edg-7 receptor screen. Rat hepatoma cells stably expressing Edg-7 receptor were plated on 384-well plates and loaded with a calcium dye loading kit (Molecular Devices, Sunnyvale, Calif.) for 1 hour at room temperature. Cells were then placed on the FLIPR^384 (Molecular Devices, Sunnyvale, Calif.) and excited by an argon laser at […]. The data for the entire 384-well plate was updated every second. An integrated robotic pipettor allowed for simultaneous compound addition into each individual well in the plate

Data set [8] addresses T8, Edg-8 (Homo sapiens, UniProt Q9H228).
T8 construct: expressed in transfected cells; host or cells: HTC rat hepatoma cells
The data set is described as follows: Calcium mobilization assay (FLIPR), inhibition of S1P-stimulated calcium increase. It is filed as cell-based. The conditions noted are these: HTC cells expressing Edg-8.

Data set [9] addresses T1, Edg-1. The data set is described as follows: Calcium mobilization assay (FLIPR), agonist stimulation of calcium increase. The conditions noted are these: HTC cells expressing Edg-1; for stimulation of calcium increases, Edg-1: concentrations as high as 25 µM. It is filed as cell-based.
Data set [10] has as its target T2, Edg-2. Described as above. It is filed as cell-based. Particulars: HTC cells expressing Edg-2; for stimulation of calcium increases, Edg-2: concentrations as high as 25 µM.
The target of data set [11] is T3, Edg-3. The data set is described as above. The class given is cell-based. Particulars: HTC cells expressing Edg-3; for stimulation of calcium increases, Edg-3: concentrations as high as 25 µM.
The target in data set [12] is T4, Edg-4. The data set is described as above. The class given is cell-based. The conditions noted are these: HTC cells expressing Edg-4; for stimulation of calcium increases, Edg-4: concentrations as high as 25 µM.
Target sequence in this assay (Q9HBW0 1-340 limits assumed): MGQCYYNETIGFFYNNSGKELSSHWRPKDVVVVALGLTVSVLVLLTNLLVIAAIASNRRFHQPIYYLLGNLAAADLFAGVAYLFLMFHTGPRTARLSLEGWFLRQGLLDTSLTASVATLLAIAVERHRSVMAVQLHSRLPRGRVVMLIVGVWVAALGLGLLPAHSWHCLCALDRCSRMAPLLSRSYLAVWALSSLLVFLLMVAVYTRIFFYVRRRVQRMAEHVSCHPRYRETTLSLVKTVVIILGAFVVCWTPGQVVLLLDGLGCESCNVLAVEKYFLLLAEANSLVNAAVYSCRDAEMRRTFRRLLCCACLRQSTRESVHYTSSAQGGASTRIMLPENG
Data set [13] addresses T5, Edg-5. Described as above. Particulars: HTC cells expressing Edg-5; for stimulation of calcium increases, Edg-5: concentrations as high as 25 µM. It is filed as cell-based.
The target in data set [14] is T6, Edg-6. Described as above. It is filed as cell-based. Particulars: HTC cells expressing Edg-6; for stimulation of calcium increases, Edg-6: concentrations as high as 25 µM.
The target in data set [15] is T7, human Edg 7 receptors. The data set is described as above. Particulars: for EC50 / specific activation of the Edg-7 receptor: HTC cells expressing human Edg 7; for Fold Selectivity: agonist selectivity for Edg-7 relative to other Edg receptors and null cells. The class given is cell-based. The method, then:
as §1, §2

The target of data set [16] is T8, Edg-8. Described as above. It is filed as cell-based. The conditions noted are these: HTC cells expressing Edg-8; for stimulation of calcium increases, Edg-8: concentrations as high as 25 µM.
Another data set has as its system untransfected HTC cells. In words: Calcium mobilization assay (FLIPR), agonist stimulation in null cells. It is filed as cell-based, rat. Particulars: for EC50: Rattus norvegicus; for stimulation of calcium increases, untransfected HTC cells: concentrations as high as 25 µM.

The term IC50 denotes the concentration that inhibits the measured activity by half. A word on the melting point: it is the temperature, or range, at which the solid turns liquid. Broadly, the EC50 is the concentration giving half of the maximal effect.

T8 sequence (Q9H228 whole entry): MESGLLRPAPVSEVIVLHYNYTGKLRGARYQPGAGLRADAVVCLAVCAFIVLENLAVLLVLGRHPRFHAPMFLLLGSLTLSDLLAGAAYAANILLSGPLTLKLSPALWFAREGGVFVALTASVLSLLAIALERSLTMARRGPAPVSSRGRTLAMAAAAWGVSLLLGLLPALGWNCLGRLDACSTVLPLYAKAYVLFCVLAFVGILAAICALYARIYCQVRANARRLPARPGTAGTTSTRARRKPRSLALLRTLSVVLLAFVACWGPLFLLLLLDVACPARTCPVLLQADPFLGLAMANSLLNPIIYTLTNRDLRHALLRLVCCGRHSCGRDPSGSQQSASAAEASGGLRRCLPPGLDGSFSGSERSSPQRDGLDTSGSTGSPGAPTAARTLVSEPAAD
T1 sequence (P21453 whole entry): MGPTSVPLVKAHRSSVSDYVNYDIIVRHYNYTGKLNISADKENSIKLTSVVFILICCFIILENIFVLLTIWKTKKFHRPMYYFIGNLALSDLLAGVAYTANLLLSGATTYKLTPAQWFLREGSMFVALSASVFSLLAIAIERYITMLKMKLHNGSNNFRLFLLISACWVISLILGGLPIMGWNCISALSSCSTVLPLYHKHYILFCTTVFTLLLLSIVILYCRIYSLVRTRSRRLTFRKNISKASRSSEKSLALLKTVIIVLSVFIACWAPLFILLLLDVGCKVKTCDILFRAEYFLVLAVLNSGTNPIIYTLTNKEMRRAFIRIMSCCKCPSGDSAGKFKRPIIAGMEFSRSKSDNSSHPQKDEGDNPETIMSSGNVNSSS

For `O=C(O)COc1ccc(Br)cc1/C=C1\S/C(=N\c2ccc(Cl)cc2)NC1=O` (racemic) [Compound 107, 4-Bromo-2-[2-(4-chlorophenylimino)-4-oxothiazolidin-5-ylidenemethyl]phenoxyacetic acid], the melting point was 272 °C (dec.). Also, on Edg-1 [1], the IC50 is > 20 µM. The IC50 at Edg-2 [2] was > 20 µM. For the same compound, the IC50 on Edg-3 [3] was > 20 µM. Besides, the IC50 on Edg-4 [4] was > 20 µM. Besides, on Edg-5 [5], the IC50 was > 20 µM. At Edg-6 [6], the IC50 was > 20 µM. Also, at human Edg 7 receptors [7], the IC50 came to 7.73 µM and the “Fold Selectivity” value is on record as >2.6 Fold. For the same compound, the IC50 on Edg-8 [8] is > 20 µM.
For the compound `Cc1cc(C)c2c(c1)Cc1ccccc1S2(=O)=O` [Compound 133, 2,4-Dimethyl-9H-thioxanthene 10,10-dioxide], the melting point was 103 to 105 °C. Moreover, on Edg-1 [9], the EC50 is > 25 µM and the “stimulation of calcium increases, Edg-1” value is “did not stimulate”. Moreover, on Edg-2 [10], the half-maximal effective concentration (EC50) is > 25 µM and the “stimulation of calcium increases, Edg-2” value is recorded as “did not stimulate”. Besides, at Edg-3 [11], the EC50 is > 25 µM and the “stimulation of calcium increases, Edg-3” value is “did not stimulate”. Further, at Edg-4 [12], the EC50 is > 25 µM and the “stimulation of calcium increases, Edg-4” value is reported as “did not stimulate”. At Edg-5 [13], the EC50 is > 25 µM and the “stimulation of calcium increases, Edg-5” value is “did not stimulate”. Also, at Edg-6 [14], the half-maximal effective concentration (EC50) is > 25 µM and the “stimulation of calcium increases, Edg-6” value is reported as “did not stimulate”. In addition, on human Edg 7 receptors [15], the EC50 is 1.61 µM, the “specific activation of the Edg-7 receptor” value (shortened to “specific activation”) was “specifically activate” and the “Fold Selectivity” value is >15.5 Fold. For the same compound, on Edg-8 [16], the EC50 is > 25 µM and the “stimulation of calcium increases, Edg-8” value was “did not stimulate”. Further, in the data set on untransfected HTC cells, the EC50 is > 25 µM and the “stimulation of calcium increases, untransfected HTC cells” value is recorded as “did not stimulate”.
As to `Cc1ccc(S(=O)(=O)N=C2NC(=O)/C(=C3/C(=O)Nc4ccccc43)S2)cc1` [Compound 105, 4-Methyl-N-[4-oxo-5-(2-oxo-1,2-dihydroindol-3-ylidene)thiazolidin-2-ylidene]-benzenesulfonamide], the melting point is 320 °C (dec.). Further, the IC50 at Edg-1 [1] was > 20 µM. Further, the IC50 on Edg-2 [2] was > 20 µM. At Edg-3 [3], the IC50 was > 20 µM. In addition, the IC50 at Edg-4 [4] was > 20 µM. Besides, the IC50 on Edg-5 [5] was > 20 µM. Besides, the IC50 on Edg-6 [6] is > 20 µM. Further, on human Edg 7 receptors [7] (HTC cells expressing Edg-7), the “selective inhibition of the Edg-7 receptor (FIG. 1, FIG. 2)” value is given as “exhibited selectivity”. Further, at human Edg 7 receptors [7], the IC50 came out at 0.52 µM and the “Fold Selectivity” value was >38.5 Fold. The IC50 on Edg-8 [8] is > 20 µM.
Compound `CCCCCC(CCCCC)=N/N=C1\NC(=O)C(CC(=O)O)S1` (stereo not drawn) [Compound 127, 4-Oxo-2-[(1-pentylhexylidene)hydrazono]thiazolidin-5-ylacetic acid] came in with a melting point of 134 to 135 °C. For the same compound, at Edg-1 [9], the 50% effective concentration (EC50) was > 25 µM and the “stimulation of calcium increases, Edg-1” value is reported as “did not stimulate”. Besides, on Edg-2 [10], the half-maximal effective concentration (EC50) was > 25 µM and the “stimulation of calcium increases, Edg-2” value is on record as “did not stimulate”. For the same compound, at Edg-3 [11], the EC50 is > 25 µM and the “stimulation of calcium increases, Edg-3” value is “did not stimulate”. Besides, at Edg-4 [12], the EC50 was > 25 µM and the “stimulation of calcium increases, Edg-4” value was “did not stimulate”. Further, at Edg-5 [13], the EC50 was > 25 µM and the “stimulation of calcium increases, Edg-5” value is recorded as “did not stimulate”. Also, at Edg-6 [14], the EC50 was > 25 µM and the “stimulation of calcium increases, Edg-6” value is “did not stimulate”. At human Edg 7 receptors [15], the EC50 came to 0.23 µM, the “specific activation” value was “specifically activate” and the “Fold Selectivity” value was >109 Fold. For the same compound, on Edg-8 [16], the EC50 is > 25 µM and the “stimulation of calcium increases, Edg-8” value is recorded as “did not stimulate”. Also, in the data set on untransfected HTC cells, the EC50 was > 25 µM and the “stimulation of calcium increases, untransfected HTC cells” value is reported as “did not stimulate”.
As for `COc1ccc(-c2nc3ccc(C(=O)O)cc3nc2-c2ccc(OC)cc2)cc1` [Compound 129, 2,3-bis-(4-Methoxyphenyl) quinoxaline-6-carboxylic acid], the melting point fell in the range of 284 to 285 °C. On Edg-1 [9], the EC50 is > 25 µM and the “stimulation of calcium increases, Edg-1” value was “did not stimulate”. Also, at Edg-2 [10], the EC50 was > 25 µM and the “stimulation of calcium increases, Edg-2” value is recorded as “did not stimulate”. Further, at Edg-3 [11], the EC50 is > 25 µM and the “stimulation of calcium increases, Edg-3” value was “did not stimulate”. Moreover, on Edg-4 [12], the EC50 is > 25 µM and the “stimulation of calcium increases, Edg-4” value is “did not stimulate”. On Edg-5 [13], the EC50 is > 25 µM and the “stimulation of calcium increases, Edg-5” value is listed as “did not stimulate”. Further, at Edg-6 [14], the EC50 was > 25 µM and the “stimulation of calcium increases, Edg-6” value is listed as “did not stimulate”. Further, on human Edg 7 receptors [15], the EC50 turned out to be 0.37 µM, the “specific activation” value is “specifically activate” and the “Fold Selectivity” value is reported as >68 Fold. Further, on Edg-8 [16], the concentration giving a half-maximal response (EC50) is > 25 µM and the “stimulation of calcium increases, Edg-8” value is recorded as “did not stimulate”. Further, in the data set on untransfected HTC cells, the EC50 is > 25 µM and the “stimulation of calcium increases, untransfected HTC cells” value is on record as “did not stimulate”.
